Source: patent publication US20240246934A1, “QUINAZOLINE-BASED COMPOUND, COMPOSITION, AND APPLICATION OF QUINAZOLINE-BASED COMPOUND” (BEIJING SCITECH-MQ PHARMACEUTICALS LIMITED, priority 2021, published 2024)

How the values were obtained:
HER2 kinase = molecular target: T1, HER2 kinase (Homo sapiens, UniProt P04626); experiment: HER2 kinase assay (ULight/PT66 TR-FRET); format: biochemical
T1 construct: purchased Carna Biosciences 08-016
Summary of the method: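 HER2 kinase preincubated 5 min with compounds (11-point 3-fold series, duplicates), then reacted 120 min at room temperature with ATP and ULight-poly GT peptide, each prepared at 4× working concentration (40 μM ATP, 400 nM substrate, 40 nM kinase). PT66 antibody added for 60 min, TR-FRET read; IC50 from inhibition curves.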

EGFR^WT kinase = EGFR^WT kinase (Homo sapiens, UniProt P00533); experiment: EGFR^WT kinase assay (ULight/PT66 TR-FRET); format: biochemical
Summary of the method: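 Enzyme preincubated 5 min with compound (11-point 3-fold series, duplicate), then ULight-JAK-1 (Tyr1023) peptide and ATP added at 4× stocks of 400 nM and 600 μM; 120 min reaction at room temperature. PT66 antibody TR-FRET read after 60 min; IC50 fitted from inhibition rates.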

[1] = molecular target: Ba/F3 EGFR D770_N771insSVD cells (Homo sapiens, UniProt P00533, DUP768-770, cells depend on it); experiment: Inhibition of cell proliferation, CTG method, Ba/F3 EGFR D770_N771insSVD; format: cell-based; conditions: 72 hours, read-out: Ba/F3 EGFR D770_N771insSVD IC50
Excerpt: The present application examined the in vitro anti-proliferative activity of the compounds of the present disclosure against in vitro cultured BT474, NCI-N87, Ba/F3-EGFR-VIII and Ba/F3 HER2 A775_G776insYVMA and Ba/F3 EGFR D770_N771insSVD cell lines by CTG method.
Reagents and consumables: RPMI1640 (ThermoFisher, Cat. No. C11875500BT); fetal bovine serum (Hyclone, Cat. No. SV30087.03); 0.25% trypsin-EDTA (ThermoFisher, Cat. No. 25200-072); penicillin-streptomycin (Hyclone, Cat. No. SV30010); DMSO (Amresco, Cat. No. 0231-500ML); CTG assay kit (Promega, Cat. No. G924C); 96-well plate (Corning, Cat. No. 3603); multifunctional plate reader (Perkin Elmer, Cat. No. Envision)
Cell lines: BT474 (from the cell bank of Chinese Academy of Sciences), NCI-N87 (from ATCC), Ba/F3-EGFR-VIII, Ba/F3 HER2 A775_G776insYVMA and Ba/F3 EGFR D770_N771insSVD (all from KYinno Biotechnology (Beijing) Co., Ltd.); all of the above cells were cultured with RPMI1640 medium containing 10% fetal bovine serum, 100 U/mL penicillin, and 100 μg/mL streptomycin in the culture process.
1. The assay compound was dissolved with DMSO to form a stock solution and a gradient dilution was performed, followed by dilution with the corresponding medium to obtain a solution with 5-fold working concentration.
2. Cells in logarithmic growth phase were adjusted to specific cell densities by dilution with culture medium, and 80 μL of cell suspension was added to a 96-well plate, such that plating densities of cells of BT474, NCI-N87, Ba/F3-EGFR-VIII, Ba/F3 HER2 A775_G776insYVMA and Ba/F3 EGFR D770_N771insSVD were all 3000 cells/well. The cells of Ba/F3-EGFR-VIII, Ba/F3 HER2 A775_G776insYVMA and Ba/F3 EGFR D770_N771insSVD were used directly in the next step (treatment with compound), whereas the BT474 and NCI-N87 needed to be cultured overnight in a 37° C., 5% carbon dioxide gas incubator to adhere to the wall, and then treated with compounds.
3. 20 μL of compound solution was added to each well of the 96-well plate that had been inoculated with cells. The highest concentration of the assayed compound was 10 μM, 4-fold serial dilution, a total of 9 concentrations, and duplicate wells. A control group without compound was also set up.
4. The cells were cultured for another 72 hours, and then cell viability was detected by CTG assay kit. Signal values were read with a multifunctional plate reader (Perkin Elmer). GraphPad Prism software was used to create a dose-response curve and IC50 was calculated.

[2] = molecular target: Ba/F3 HER2 A775_G776insYVMA cells (Homo sapiens, UniProt P04626, DUP772-775, cells depend on it); experiment: Inhibition of cell proliferation, CTG method, Ba/F3 HER2 A775_G776insYVMA; format: cell-based; conditions: 72 hours, read-out: Ba/F3 HER2 A775-G776insYVMA IC50
Summary of the method: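 Ba/F3 HER2 A775_G776insYVMA cells in RPMI1640 with 10% FBS were plated at 3000 cells/well and treated directly with compound (top 10 μM, 4-fold, 9 concentrations, duplicates).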

Ba/F3 EGFR D770_N771insSVD cells, sequence (P00533 with tags, fused parts or gaps DUP768-770): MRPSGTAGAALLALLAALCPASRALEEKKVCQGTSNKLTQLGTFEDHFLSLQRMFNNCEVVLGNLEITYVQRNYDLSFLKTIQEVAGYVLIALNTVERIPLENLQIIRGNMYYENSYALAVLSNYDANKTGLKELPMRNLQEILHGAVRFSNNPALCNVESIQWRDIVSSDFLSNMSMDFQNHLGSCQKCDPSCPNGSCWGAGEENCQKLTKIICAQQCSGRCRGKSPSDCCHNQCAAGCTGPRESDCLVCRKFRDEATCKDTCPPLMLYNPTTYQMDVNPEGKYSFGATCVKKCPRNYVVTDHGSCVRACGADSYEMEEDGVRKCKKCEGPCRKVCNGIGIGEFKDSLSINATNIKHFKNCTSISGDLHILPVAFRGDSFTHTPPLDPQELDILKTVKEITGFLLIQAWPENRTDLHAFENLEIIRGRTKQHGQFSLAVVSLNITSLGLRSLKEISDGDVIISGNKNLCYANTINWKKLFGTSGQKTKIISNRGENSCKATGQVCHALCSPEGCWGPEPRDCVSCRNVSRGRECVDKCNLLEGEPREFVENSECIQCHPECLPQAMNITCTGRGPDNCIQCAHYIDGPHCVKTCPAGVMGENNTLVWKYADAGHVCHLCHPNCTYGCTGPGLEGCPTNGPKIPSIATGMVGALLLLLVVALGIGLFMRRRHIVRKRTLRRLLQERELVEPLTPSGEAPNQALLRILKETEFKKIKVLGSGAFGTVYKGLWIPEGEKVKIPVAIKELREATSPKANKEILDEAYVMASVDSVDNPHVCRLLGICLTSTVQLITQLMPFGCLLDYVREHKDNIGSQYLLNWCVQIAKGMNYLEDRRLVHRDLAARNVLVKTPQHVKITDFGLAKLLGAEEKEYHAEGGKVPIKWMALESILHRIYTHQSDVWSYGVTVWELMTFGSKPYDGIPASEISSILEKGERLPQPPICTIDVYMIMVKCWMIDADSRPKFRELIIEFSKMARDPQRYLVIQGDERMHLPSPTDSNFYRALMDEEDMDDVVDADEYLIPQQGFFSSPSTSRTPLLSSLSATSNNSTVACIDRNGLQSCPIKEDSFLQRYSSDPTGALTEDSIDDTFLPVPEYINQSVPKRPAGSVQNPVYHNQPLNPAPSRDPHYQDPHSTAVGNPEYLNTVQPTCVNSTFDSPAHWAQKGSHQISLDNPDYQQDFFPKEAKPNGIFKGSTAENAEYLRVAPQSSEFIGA
EGFR^WT kinase, sequence (P00533 25-1210): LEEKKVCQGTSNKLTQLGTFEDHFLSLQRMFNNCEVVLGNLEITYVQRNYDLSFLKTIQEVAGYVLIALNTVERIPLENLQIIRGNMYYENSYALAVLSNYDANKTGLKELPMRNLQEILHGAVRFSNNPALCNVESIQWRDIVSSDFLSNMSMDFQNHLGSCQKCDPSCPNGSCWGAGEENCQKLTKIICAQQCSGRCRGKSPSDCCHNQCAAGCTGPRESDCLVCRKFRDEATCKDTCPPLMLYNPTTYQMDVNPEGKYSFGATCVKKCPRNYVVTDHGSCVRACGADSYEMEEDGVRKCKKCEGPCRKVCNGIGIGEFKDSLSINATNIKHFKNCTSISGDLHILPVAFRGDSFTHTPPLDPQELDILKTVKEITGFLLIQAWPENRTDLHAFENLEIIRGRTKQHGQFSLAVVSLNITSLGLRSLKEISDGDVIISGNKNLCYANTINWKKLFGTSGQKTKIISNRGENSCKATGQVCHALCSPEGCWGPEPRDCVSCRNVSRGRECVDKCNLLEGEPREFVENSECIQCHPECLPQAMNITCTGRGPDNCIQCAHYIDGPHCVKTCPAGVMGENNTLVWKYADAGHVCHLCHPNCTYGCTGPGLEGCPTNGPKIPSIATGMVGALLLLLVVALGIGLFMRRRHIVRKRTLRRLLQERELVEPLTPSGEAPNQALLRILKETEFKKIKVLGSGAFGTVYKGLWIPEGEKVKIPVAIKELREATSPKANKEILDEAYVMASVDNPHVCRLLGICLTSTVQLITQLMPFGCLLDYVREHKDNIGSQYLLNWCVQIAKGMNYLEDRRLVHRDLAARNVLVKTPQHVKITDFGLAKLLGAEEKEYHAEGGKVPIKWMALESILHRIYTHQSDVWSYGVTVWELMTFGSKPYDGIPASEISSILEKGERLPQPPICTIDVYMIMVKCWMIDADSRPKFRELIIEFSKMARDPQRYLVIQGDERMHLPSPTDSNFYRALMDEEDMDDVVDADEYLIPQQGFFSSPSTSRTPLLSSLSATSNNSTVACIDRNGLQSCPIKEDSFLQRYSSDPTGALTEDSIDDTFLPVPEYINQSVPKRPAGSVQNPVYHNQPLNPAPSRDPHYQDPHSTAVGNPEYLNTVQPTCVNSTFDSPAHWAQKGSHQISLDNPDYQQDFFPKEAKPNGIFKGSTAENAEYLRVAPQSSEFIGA
Ba/F3 HER2 A775_G776insYVMA cells, sequence (P04626 with tags, fused parts or gaps DUP772-775): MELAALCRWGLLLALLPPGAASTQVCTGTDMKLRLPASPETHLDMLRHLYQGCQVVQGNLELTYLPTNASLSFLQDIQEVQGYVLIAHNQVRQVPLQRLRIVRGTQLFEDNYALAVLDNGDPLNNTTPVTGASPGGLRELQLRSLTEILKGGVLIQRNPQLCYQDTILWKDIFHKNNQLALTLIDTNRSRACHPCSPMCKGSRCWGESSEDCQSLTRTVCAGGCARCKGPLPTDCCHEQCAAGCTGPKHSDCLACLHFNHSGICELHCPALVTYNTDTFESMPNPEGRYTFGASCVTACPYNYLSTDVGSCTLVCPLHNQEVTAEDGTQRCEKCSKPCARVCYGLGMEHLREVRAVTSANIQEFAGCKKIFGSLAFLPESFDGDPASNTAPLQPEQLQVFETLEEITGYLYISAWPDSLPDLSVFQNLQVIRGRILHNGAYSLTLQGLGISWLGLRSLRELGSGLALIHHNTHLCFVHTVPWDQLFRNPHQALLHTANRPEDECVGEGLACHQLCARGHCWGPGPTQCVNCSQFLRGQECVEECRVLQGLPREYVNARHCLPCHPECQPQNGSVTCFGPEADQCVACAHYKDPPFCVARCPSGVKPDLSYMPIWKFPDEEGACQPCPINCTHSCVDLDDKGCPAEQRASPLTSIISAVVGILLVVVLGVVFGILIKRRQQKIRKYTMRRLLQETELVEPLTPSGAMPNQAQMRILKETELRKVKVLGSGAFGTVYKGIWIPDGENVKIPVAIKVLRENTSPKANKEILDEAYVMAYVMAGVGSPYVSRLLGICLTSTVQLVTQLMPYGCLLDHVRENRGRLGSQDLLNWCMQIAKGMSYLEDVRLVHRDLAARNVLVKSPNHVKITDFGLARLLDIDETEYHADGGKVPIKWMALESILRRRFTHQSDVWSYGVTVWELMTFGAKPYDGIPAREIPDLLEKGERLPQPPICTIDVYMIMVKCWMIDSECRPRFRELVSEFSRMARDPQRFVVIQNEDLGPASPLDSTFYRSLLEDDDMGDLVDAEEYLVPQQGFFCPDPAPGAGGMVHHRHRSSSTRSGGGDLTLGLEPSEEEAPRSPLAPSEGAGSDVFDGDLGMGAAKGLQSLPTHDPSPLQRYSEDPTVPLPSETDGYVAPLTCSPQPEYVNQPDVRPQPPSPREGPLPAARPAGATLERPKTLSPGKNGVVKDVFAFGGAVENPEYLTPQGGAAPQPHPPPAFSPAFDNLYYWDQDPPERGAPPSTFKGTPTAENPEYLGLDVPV
T1 sequence (P04626 23-1255): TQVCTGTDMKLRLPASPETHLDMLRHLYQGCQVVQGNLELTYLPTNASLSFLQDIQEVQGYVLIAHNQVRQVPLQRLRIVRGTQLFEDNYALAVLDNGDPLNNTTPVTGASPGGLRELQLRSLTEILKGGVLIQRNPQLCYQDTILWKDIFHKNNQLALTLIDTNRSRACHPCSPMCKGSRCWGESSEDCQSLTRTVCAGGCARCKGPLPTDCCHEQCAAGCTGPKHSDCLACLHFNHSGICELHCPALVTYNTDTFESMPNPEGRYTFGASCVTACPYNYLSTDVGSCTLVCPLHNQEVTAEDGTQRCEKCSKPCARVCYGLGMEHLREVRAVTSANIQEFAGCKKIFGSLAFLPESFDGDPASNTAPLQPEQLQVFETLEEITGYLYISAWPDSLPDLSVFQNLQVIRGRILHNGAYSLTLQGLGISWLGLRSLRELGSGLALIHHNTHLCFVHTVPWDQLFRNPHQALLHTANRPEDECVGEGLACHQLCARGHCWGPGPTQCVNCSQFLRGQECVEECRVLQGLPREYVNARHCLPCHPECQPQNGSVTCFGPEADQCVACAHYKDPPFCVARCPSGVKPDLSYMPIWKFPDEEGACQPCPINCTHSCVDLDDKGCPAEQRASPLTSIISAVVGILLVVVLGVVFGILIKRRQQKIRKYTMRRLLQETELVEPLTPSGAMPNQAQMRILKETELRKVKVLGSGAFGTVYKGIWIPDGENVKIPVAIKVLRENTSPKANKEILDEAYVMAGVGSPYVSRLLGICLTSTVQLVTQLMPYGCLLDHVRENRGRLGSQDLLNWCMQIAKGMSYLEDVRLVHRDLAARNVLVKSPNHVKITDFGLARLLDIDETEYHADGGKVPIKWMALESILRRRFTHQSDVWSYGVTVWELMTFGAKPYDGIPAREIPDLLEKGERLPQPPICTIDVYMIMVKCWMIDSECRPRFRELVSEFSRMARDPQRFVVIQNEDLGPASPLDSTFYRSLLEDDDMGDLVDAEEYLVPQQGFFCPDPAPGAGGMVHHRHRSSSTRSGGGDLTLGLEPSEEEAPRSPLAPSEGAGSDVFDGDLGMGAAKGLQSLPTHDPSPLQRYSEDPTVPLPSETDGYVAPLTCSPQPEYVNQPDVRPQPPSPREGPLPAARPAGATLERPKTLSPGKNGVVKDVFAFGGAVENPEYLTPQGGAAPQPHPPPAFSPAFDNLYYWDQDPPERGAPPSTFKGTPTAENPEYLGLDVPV

SMILES	IC50 (HER2 kinase) [nM]	IC50 (EGFR^WT kinase) [nM]	GI50 [1] [nM]	GI50 [2] [nM]
CN1CCC[C@@H]1/C=C/C(=O)Nc1ccc2ncnc(Nc3ccc(OCc4ccccn4)c(Cl)c3)c2c1OCCO [Example 6, (R,E)-N-(4-((3-chloro-4-(pyridin-2-ylmethoxy)phenyl)amino)-5-(2-hydroxyethoxy)quinazolin-6-yl)-3-(1-methylpyrrolidin-2-yl)acrylamide]	< 10	< 10	5 to 10	1 to 5
CN1CCC[C@@H]1/C=C/C(=O)Nc1ccc2ncnc(Nc3ccc(OCc4ccccn4)c(Cl)c3)c2c1OCCCF [Example 10, (R,E)-N-(4-((3-chloro-4-(pyridin-2-ylmethoxy)phenyl)amino)-5-(3-fluoropropoxy)quinazolin-6-yl)-3-(1-methylpyrrolidin-2-yl)acrylamide]	< 10	< 10	10 to 100	1 to 5
CN1CCC[C@@H]1/C=C/C(=O)Nc1ccc2ncnc(Nc3ccc(OCc4ccccn4)c(Cl)c3)c2c1OCC(C)(C)O [Example 15, (R,E)-N-(4-((3-chloro-4-(pyridin-2-ylmethoxy)phenyl)amino)-5-(2-hydroxy-2-methylpropoxy)quinazolin-6-yl)-3-(1-methylpyrrolidin-2-yl)acrylamide]	< 10	< 10	10 to 100	1 to 5
